Molecules are shown by their SMILES. Some results are limits rather than exact numbers.

For this assay, the target named is T1, TBK1 (Homo sapiens, UniProt Q9UHD2).
T1 construct: All protein kinases were of human origin and encoded full length proteins, unless indicated otherwise; His6; made in house; host or cells: insect Sf21 cells
T1 sequence (Q9UHD2 1-729): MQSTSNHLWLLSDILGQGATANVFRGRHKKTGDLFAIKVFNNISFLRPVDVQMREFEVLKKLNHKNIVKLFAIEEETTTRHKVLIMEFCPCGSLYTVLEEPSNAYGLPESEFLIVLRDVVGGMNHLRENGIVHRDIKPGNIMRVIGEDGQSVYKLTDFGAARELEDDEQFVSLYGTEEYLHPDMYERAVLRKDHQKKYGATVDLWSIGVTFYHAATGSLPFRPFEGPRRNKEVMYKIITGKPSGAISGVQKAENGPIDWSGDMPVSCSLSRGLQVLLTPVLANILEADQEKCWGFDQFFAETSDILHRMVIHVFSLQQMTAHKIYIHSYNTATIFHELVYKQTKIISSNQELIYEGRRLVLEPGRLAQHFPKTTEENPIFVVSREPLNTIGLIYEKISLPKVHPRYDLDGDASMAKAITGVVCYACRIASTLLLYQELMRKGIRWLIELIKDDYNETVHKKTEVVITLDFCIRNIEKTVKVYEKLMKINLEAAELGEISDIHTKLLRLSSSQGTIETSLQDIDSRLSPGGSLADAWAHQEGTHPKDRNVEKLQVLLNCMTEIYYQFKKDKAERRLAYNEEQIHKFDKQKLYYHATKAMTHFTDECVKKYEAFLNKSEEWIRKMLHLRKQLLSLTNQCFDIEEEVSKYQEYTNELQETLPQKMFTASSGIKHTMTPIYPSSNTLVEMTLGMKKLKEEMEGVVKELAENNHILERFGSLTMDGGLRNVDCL
Briefly: TBK1 protein kinase assay ([γ-33P]ATP filter-plate, IC50 from 10 concentrations). In kind it is biochemical. Particulars: 50 μM ATP, peptide substrate 300 μM, 30 min, 21° C.; read-out: Potency score (TBK1 IC50). From the text:
All protein kinases were of human origin and encoded full length proteins, unless indicated otherwise. They were either expressed as glutathione S-transferase (GST) fusion proteins in Escherichia Coli or as hexahistidine (His6)-tagged proteins in insect Sf21 cells. GST fusion proteins were purified by affinity chromatography on glutathione-Sepharose, and His6-tagged proteins on nickel/nitriloacetate-agarose. The procedures for expressing some of the protein kinases used herein have been detailed previously.^8,9 The following sections outline the DNA vectors synthesised and the procedures used to express and purifying protein kinases that have not been reported previously.
The following kinases were expressed in Sf21 cells: Aurora B and Aurora C, extra-cellular signal-regulated kinase 8 (ERK8), microtubule affinity regulating kinase 3 (MARK3), protein kinase Bα[118-480][S473D], protein kinase Bβ (PKBβ[120-481][S474D], 3-phosphoinositide-dependent protein kinase-1 [52-556] (PDK1[52-556], IKKε, TBK1,
All assays (25.5 μl) were carried out at room temperature (21° C.) and were linear with respect to time and enzyme concentration under the conditions used. Assays were performed for 30 min using Multidrop Micro reagent dispensers (Thermo Electron Corporation, Waltham, Mass. 02454, USA) in a 96-well format. The concentration of magnesium acetate in the assays was 10 mM and the [γ-33P] ATP (800 cpm/pmol) was used at 5, 20 or 50 μM as indicated, in order to be at or below the Km for ATP for each enzyme. Protein kinases assayed at 5 μM ATP were: ERK1, ERK8, PKBα, MARK3, Aurora C. Protein kinases assayed at 20 μM ATP were: JNK1, PDK1, CHK1, CHK2, CDK2 and Aurora B. Protein kinases assayed at 50 μM ATP were: MNK2, IKKepsilon and TBK1.
The assays were initiated with MgATP, stopped by addition of 5 μl of 0.5 M orthophosphoric acid and spotted on to P81 filterplates using a unifilter harvester (PerkinElmer, Boston, Mass. 02118, USA). The IC50 values of inhibitors were determined after carrying out assays at 10 different concentrations of each compound.
ERK1 and ERK8 were both assayed against myelin basic protein (MBP, 0.33 mg/ml). MARK3 was assayed against the peptide […] (300 μM), MNK2 against the eIF4E protein (0.5 mg/ml). PKBβ was assayed against the peptide GRPRTSSFAEGKK (30 μM). TBK1 were assayed against ([…]) (300 μM). The substrates used for other protein kinases were described previously.^8,9
Unless stated otherwise, enzymes were diluted in 50 mM Tris/HCl pH 7.5, 0.1 mM EGTA, 1 mg/ml BSA, 0.1% (v/v) 2-mercaptoethanol and assayed in 50 mM Tris/HCl pH 7.5, 0.1 mM EGTA, 0.1% (v/v) 2-mercaptoethanol.

By IC50 is commonly meant the midpoint of a concentration-inhibition curve. As to `O=C(NCCCn1ccc2cnc(Nc3ccc(N4CCOCC4)nc3)nc21)C1CC1` [Example 22, Cyclopropanecarboxylic acid {3-[2-(6-morpholin-4-yl-pyridin-3-ylamino)-pyrrolo[2,3-d]pyrimidin-7-yl]-propyl}-amide], the IC50 is 100 to 1000 nM.

As to `O=C(NCCCn1ccc2cnc(Nc3cnn(CCN4CCOCC4)c3)nc21)C1CCC1` [Example 9, Cyclobutanecarboxylic acid (3-{2-[1-(2-morpholin-4-yl-ethyl)-1H-pyrazol-4-ylamino]-pyrrolo[2,3-d]pyrimidin-7-yl}-propyl)-amide], the IC50 is 100 to 1000 nM.

For `O=C(NCCCn1ccc2cnc(Nc3cccc(C(F)(F)F)c3)nc21)c1cccs1` [Example 13, Thiophene-2-carboxylic acid {3-[2-(3-trifluoromethyl-phenylamino)-pyrrolo[2,3-d]pyrimidin-7-yl]-propyl}-amide], the IC50 lay within 1000 to 10000 nM.

`CN1CCC(c2ccc(Nc3ncc4ccn(CCCNC(=O)C5CCC5)c4n3)cc2)CC1` [Example 56, Cyclobutanecarboxylic acid (3-{2-[4-(1-methyl-piperidin-4-yl)-phenylamino]-pyrrolo[2,3-d]pyrimidin-7-yl}-propyl]-amide]: the IC50 is below 100 nM.

Turning to `CCn1cc(Nc2ncc3ccn(CCCNC(=O)C4CCC4)c3n2)cn1` [Example 47, Cyclobutanecarboxylic acid {3-[2-(1-ethyl-1H-pyrazol-4-ylamino)-pyrrolo[2,3-d]pyrimidin-7-yl]-propyl}-amide], the IC50 was below 100 nM.

`CC(C)C(=O)NCCCn1ccc2cnc(Nc3ccc(N4CCOCC4)nc3)nc21` [Example 23, N-{3-[2-(6-Morpholin-4-yl-pyridin-3-ylamino)-pyrrolo[2,3-d]pyrimidin-7-yl]-propyl}-isobutyramide]: the IC50 was 1000 to 10000 nM.

`CC(C)N1CCC(n2cc(Nc3ncc4ccn(CCCNC(=O)C5CCC5)c4n3)cn2)CC1` [Example 51, Cyclobutanecarboxylic acid (3-{2-[1-(1-isopropyl-piperidin-4-yl)-1H-pyrazol-4-ylamino]-pyrrolo[2,3-d]pyrimidin-7-yl}-propyl)-amide]: the IC50 was below 100 nM.

As for `O=C(NCCCn1cc(Br)c2cnc(Nc3cccc(F)c3)nc21)C1CCC1` [Example 36, Cyclobutanecarboxylic acid {3-[5-bromo-2-(3-fluoro-phenylamino)-pyrrolo[2,3-d]pyrimidin-7-yl]-propyl}-amide], the IC50 is below 100 nM.

For `O=C(NCCCn1ccc2cnc(Nc3ccc(N4CCOCC4)cc3)nc21)C1CCC1` [Example 3, Cyclobutanecarboxylic acid {3-[2-(4-morpholin-4-yl-phenylamino)-pyrrolo[2,3-d]pyrimidin-7-yl]-propyl}-amide], the IC50 was below 100 nM.

On to `Cn1ncc2cc(Nc3ncc4ccn(CCCNC(=O)C5CCC5)c4n3)cnc21` [Example 44, Cyclobutanecarboxylic acid {3-[2-(1-methyl-1H-pyrazolo[3,4-b]pyridin-5-ylamino)-pyrrolo[2,3-d]pyrimidin-7-yl]-propyl}-amide], for which the IC50 is below 100 nM.

Take `O=C(NCCCn1ccc2cnc(Nc3cccc(N4CCOCC4)c3)nc21)C1CCC1` [Example 48, Cyclobutanecarboxylic acid {3-[2-(3-morpholin-4-yl-phenylamino)-pyrrolo[2,3-d]pyrimidin-7-yl]-propyl}-amide]: the IC50 was below 100 nM.

For `O=C(NCCCn1cc(Cl)c2cnc(Nc3ccc(N4CCOCC4)nc3)nc21)C1CCC1` [Example 35, Cyclobutanecarboxylic acid {3-[5-chloro-2-(6-morpholin-4-yl-pyridin-3-ylamino)-pyrrolo[2,3-d]pyrimidin-7-yl]-propyl}-amide], the IC50 was below 100 nM.

With `CN(C)Cc1ccc(Nc2ncc3ccn(CCCNC(=O)C4CCC4)c3n2)cc1` [Example 5, Cyclobutanecarboxylic acid {3-[2-(4-dimethylaminomethyl-phenylamino)-pyrrolo[2,3-d]pyrimidin-7-yl]-propyl}-amide], the IC50 is below 100 nM.

As to `O=C(NCCCn1ccc2cnc(Nc3cccc(F)c3)nc21)C1CCC1` [Example 27, Cyclobutanecarboxylic acid {3-[2-(3-fluoro-phenylamino)-pyrrolo[2,3-d]pyrimidin-7-yl]-propyl}-amide], the IC50 was below 100 nM.

Regarding `O=C(NCCCn1ccc2cnc(Nc3cccc(-c4cnco4)c3)nc21)C1CCC1` [Example 7, Cyclobutanecarboxylic acid {3-[2-(3-oxazol-5-yl-phenylamino)-pyrrolo[2,3-d]pyrimidin-7-yl]-propyl}-amide], the IC50 is below 100 nM.

On to `COC1(c2ccc(Nc3ncc4ccn(CCCNC(=O)C5CCC5)c4n3)cc2)CCN(C)CC1` [Example 58, Cyclobutanecarboxylic acid (3-{2-[4-(4-methoxy-1-methyl-piperidin-4-yl)-phenylamino]-pyrrolo[2,3-d]pyrimidin-7-yl}-propyl)-amide], for which the IC50 is below 100 nM.

On to `O=C(NCCCn1ccc2cnc(Nc3ccc(C4CCN(CCF)CC4)cc3)nc21)C1CCC1` [Example 60, Cyclobutanecarboxylic acid [3-(2-{4-[1-(2-fluoro-ethyl)-piperidin-4-yl]-phenylamino}-pyrrolo[2,3-d]pyrimidin-7-yl)-propyl]-amide], for which the IC50 is below 100 nM.

`CC(=O)Nc1cccc(Nc2ncc3ccn(CCCNC(=O)C4CCCC4)c3n2)c1` [Example 33, Cyclopentanecarboxylic acid {3-[2-(3-acetylamino-phenylamino)-pyrrolo[2,3-d]pyrimidin-7-yl]-propyl}-amide]: the IC50 is below 100 nM.

`CN1CCC(C#N)(c2ccc(Nc3ncc4ccn(CCCNC(=O)C5CCC5)c4n3)cc2)CC1` [Example 59, Cyclobutanecarboxylic acid (3-{2-[4-(4-cyano-1-methyl-piperidin-4-yl)-phenylamino]-pyrrolo[2,3-d]pyrimidin-7-yl}-propyl)-amide]: the IC50 was below 100 nM.

For the molecule `O=C(NCCCn1ccc2cnc(Nc3ccc(N4CCOCC4)nc3)nc21)c1cncs1` [Example 21, Thiazole-5-carboxylic acid {3-[2-(6-morpholin-4-yl-pyridin-3-ylamino)-pyrrolo[2,3-d]pyrimidin-7-yl]-propyl}-amide], the IC50 was 100 to 1000 nM.

With `O=C(NCCCn1ccc2cnc(Nc3ccc(N4CCOCC4)nc3)nc21)C1CCOC1` (centres unmarked) [Example 20, Tetrahydro-furan-3-carboxylic acid {3-[2-(6-morpholin-4-yl-pyridin-3-ylamino)-pyrrolo[2,3-d]pyrimidin-7-yl]-propyl}-amide], the IC50 was below 100 nM.

`Cn1ncc2cc(Nc3ncc4ccn(CCCNC(=O)C5CCC5)c4n3)ccc21` [Example 1, Cyclobutanecarboxylic acid {3-[2-(1-methyl-1H-indazol-5-ylamino)-pyrrolo[2,3-d]pyrimidin-7-yl]propyl}-amide]: the IC50 was below 100 nM.

As to `CCCC(=O)NCCCn1ccc2cnc(Nc3ccc(N4CCOCC4)nc3)nc21` [Example 26, N-{3-[2-(6-Morpholin-4-yl-pyridin-3-ylamino)-pyrrolo[2,3-d]pyrimidin-7-yl]-propyl}-butyramide], the IC50 fell in the range of 100 to 1000 nM.

For the origin of these results see patent US20120088753A1, “PYRROLOPYRIMIDINES AND USED AS KINASE INHIBITORS” (MEDICAL RESEARCH COUNCIL TECHNOLOGY, priority 2009, published 2012).
